Measurements as given in the NIST ThermoML archive (doi:10.1016/j.jct.2008.01.018).

Assay: refractive index (Na D-line) (dimensionless); mn = molality of the nth substance listed, in mol/kg
Details: 298.15 K, 101 kPa, Liquid, Standard Abbe refractometry

O=P([O-])(O)O.[Na+] [sodium dihydrogen phosphate] + O
Details	refractive index
m1 = 0.0207	1.3331
m1 = 0.0415	1.3334
m1 = 0.0697	1.3338
m1 = 0.1051	1.3342
m1 = 0.1397	1.3351
m1 = 0.1901	1.3357
m1 = 0.2357	1.3363
m1 = 0.2947	1.3373
m1 = 0.3516	1.3382
m1 = 0.433	1.3393
m1 = 0.5113	1.3405
m1 = 0.5842	1.3416
m1 = 0.653	1.3425
m1 = 0.6999	1.3432
m1 = 0.7919	1.3442
m1 = 0.9206	1.3459
m1 = 1.175	1.3491
m1 = 1.18	1.3491
m1 = 1.447	1.3524
m1 = 1.794	1.3565
m1 = 2.079	1.3597
m1 = 2.396	1.3629
m1 = 2.398	1.3627
